Molecules are shown by their SMILES. Values after ≈ are worked out from the molar mass of the structure shown. Active and inactive are the calls of the source. The calls are words filed in the database; no cut-off is given here.

Broadly, the MIC is the lowest concentration found to suppress growth.

Data set [1] deals with Enterococcus faecium. As to the kind of experiment: Antibacterial activity against pleuromutilin-resistant Enterococcus faecium 18SC29-2 harboring (lsa(E)-) genotype assessed as inhibition of visible growth of bacteria incubated for 24 hrs by CLSI protocol based broth-dilution method. Type of data set: functional.
Data set [2] relates to Enterococcus faecium. As to the kind of experiment: Antibacterial activity against pleuromutilin-resistant Enterococcus faecium 18FJZ1-1 harboring (lsa(E)+) genotype assessed as inhibition of visible growth of bacteria incubated for 24 hrs by CLSI protocol based broth-dilution method. Type of data set: functional.
Data set [3] concerns Staphylococcus aureus. As to the kind of experiment: Antibacterial activity against methicillin-resistant Staphylococcus aureus J1 harboring (lsa(E)+) genotype assessed as inhibition of visible growth of bacteria incubated for 24 hrs by CLSI protocol based broth-dilution method. The data set is classed as functional.
Data set [4] relates to Staphylococcus simulans. Briefly: Antibacterial activity against pleuromutilin-resistant Staphylococcus simulans isolate 55-1 harboring cfr+ genotype assessed as inhibition of visible growth of bacteria incubated for 24 hrs by CLSI protocol based broth-dilution method. The data set is classed as functional.
For data set [5], the system named is Staphylococcus aureus. As to the kind of experiment: Antibacterial activity against Staphylococcus aureus ATCC 29213 assessed as inhibition of visible growth of bacteria incubated for 24 hrs by CLSI protocol based broth-dilution method. Type of data set: functional.
In data set [6] the test system is Staphylococcus epidermidis. Briefly: Antibacterial activity against Staphylococcus epidermidis ATCC 12228 assessed as inhibition of visible growth of bacteria incubated for 24 hrs by CLSI protocol based broth-dilution method. Type of data set: functional.
In data set [7] the test system is Staphylococcus aureus. As to the kind of experiment: Antibacterial activity against Staphylococcus aureus USA 300 assessed as inhibition of visible growth of bacteria incubated for 24 hrs by CLSI protocol based broth-dilution method. Type of data set: functional.
Data set [8] deals with Staphylococcus aureus. As to the kind of experiment: Antibacterial activity against methicilin-resistant Staphylococcus aureus isolate 15-2 assessed as inhibition of visible growth of bacteria incubated for 24 hrs by CLSI protocol based broth-dilution method. The data set is classed as functional.
Data set [9] concerns Staphylococcus aureus. As to the kind of experiment: Antibacterial activity against Staphylococcus aureus ATCC 25923 assessed as inhibition of visible growth of bacteria incubated for 24 hrs by CLSI protocol based broth-dilution method. Type of data set: functional.
Data set [10] concerns Staphylococcus aureus. As to the kind of experiment: Antibacterial activity against Staphylococcus aureus ATCC 33591 assessed as inhibition of visible growth of bacteria incubated for 24 hrs by CLSI protocol based broth-dilution method. The data set is classed as functional.
Data set [11] concerns Staphylococcus aureus. As to the kind of experiment: Antibacterial activity against Staphylococcus aureus ATCC 43300 assessed as inhibition of visible growth of bacteria incubated for 24 hrs by CLSI protocol based broth-dilution method. Type of data set: functional.
Data set [12] relates to Staphylococcus aureus. As to the kind of experiment: Antibacterial activity against Staphylococcus aureus ATCC 700788 assessed as inhibition of visible growth of bacteria incubated for 24 hrs by CLSI protocol based broth-dilution method. The data set is classed as functional.
In data set [13] the test system is Staphylococcus aureus. Briefly: Antibacterial activity against Staphylococcus aureus ATCC 700699 assessed as inhibition of visible growth of bacteria incubated for 24 hrs by CLSI protocol based broth-dilution method. The data set is classed as functional.
In data set [14] the test system is Streptococcus pneumoniae. As to the kind of experiment: Antibacterial activity against penicillin resistant Streptococcus pneumoniae isolate 20-1 assessed as inhibition of visible growth of bacteria incubated for 24 hrs by CLSI protocol based broth-dilution method. Type of data set: functional.
The subject of data set [15] is Streptococcus pneumoniae. Briefly: Antibacterial activity against penicillin sensitive Streptococcus pneumoniae isolate 20-1 assessed as inhibition of visible growth of bacteria incubated for 24 hrs by CLSI protocol based broth-dilution method. Type of data set: functional.
For data set [16], the system named is Staphylococcus epidermidis. Briefly: Antibacterial activity against methicillin-sensitive Staphylococcus epidermidis isolate 20-15 assessed as inhibition of visible growth of bacteria incubated for 24 hrs by CLSI protocol based broth-dilution method. The data set is classed as functional.
Data set [17] has as its system Enterococcus faecalis. Briefly: Antibacterial activity against Enterococcus faecalis ATCC 29212 assessed as inhibition of visible growth of bacteria incubated for 24 hrs by CLSI protocol based broth-dilution method. Type of data set: functional.
Data set [18] has as its system Enterococcus faecalis. Briefly: Antibacterial activity against Enterococcus faecalis HB 24-4 assessed as inhibition of visible growth of bacteria incubated for 24 hrs by CLSI protocol based broth-dilution method. The data set is classed as functional.
For data set [19], the system named is Escherichia coli. As to the kind of experiment: Antibacterial activity against Escherichia coli ATCC 25922 assessed as inhibition of visible growth of bacteria incubated for 24 hrs by CLSI protocol based broth-dilution method. Type of data set: functional.
Data set [20] concerns Acinetobacter baumannii. Briefly: Antibacterial activity against Acinetobacter baumannii ATCC 19606 assessed as inhibition of visible growth of bacteria incubated for 24 hrs by CLSI protocol based broth-dilution method. Type of data set: functional.
The test system of data set [21] is Staphylococcus aureus. Briefly: Antibacterial activity against methicillin-resistant Staphylococcus aureus USA 300 assessed as inhibition of bacterial growth at 1 times of MIC measured upto 24 hrs by time-kill kinetics assay. Type of data set: functional, organism-based.
In data set [22] the test system is Staphylococcus aureus. As to the kind of experiment: Bactericidal activity against methicillin-resistant Staphylococcus aureus USA 300 assessed as inhibition of bacterial growth at 8 times of MIC by time kill kinetics assay. The conditions noted are these: time <= 24.0 hrs, TDE = time-dependent effect. Type of data set: functional, organism-based.
A short description of data set [23]: Stability in mouse liver microsomes assessed as drug metabolism at 1 uM measured within 1 hrs in presence of NADPH by LC-MS analysis. Type of data set: ADME, Microsome. The conditions noted are these: read-out: Drug metabolism.
A short description of data set [24]: Stability in rat liver microsomes assessed as drug metabolism at 1 uM measured within 1 hrs in presence of NADPH by LC-MS analysis. The data set is classed as ADME, Microsome. The conditions noted are these: read-out: Drug metabolism.
Data set [25] is described as follows: Stability in human liver microsomes assessed as drug metabolism at 1 uM measured within 1 hrs in presence of NADPH by LC-MS analysis. The data set is classed as ADME, Microsome. As to conditions: read-out: Drug metabolism. On the technique in general: Microsomes from liver hold many membrane-bound enzymes, among them those of drug oxidation.
Data set [26] deals with Staphylococcus aureus. As to the kind of experiment: Antibacterial activity against methicillin-resistant Staphylococcus aureus USA 300 assessed as number of colonies with prevalence of spontaneous mutation at 4 times of MIC incubated for 48 hrs by agar dilution assay. The data set is classed as functional. (In general: In agar dilution, organisms are placed on agar that contains the substance at set levels.)

Data set [27] concerns Staphylococcus aureus. As to the kind of experiment: Antibacterial activity against methicillin-resistant Staphylococcus aureus USA 300 assessed as number of colonies with prevalence of spontaneous mutation at 8 times of MIC incubated for 48 hrs by agar dilution assay. Type of data set: functional.

In the case of `C=C[C@]1(C)C[C@@H](OC(=O)CS[C@@H]2C[C@H]3CC[C@@H](C2)N3C)[C@]2(C)[C@H](C)CC[C@]3(CCC(=O)[C@H]32)[C@@H](C)[C@@H]1O` [RETAPAMULIN], the MIC in data set [1] was 0.125 µg/mL (≈ 0.241 µM); in data set [2] it was 32 µg/mL (≈ 61.8 µM); in [3], above 32 µg/mL; in data set [4], 32 µg/mL (≈ 61.8 µM).

For the molecule `C=C[C@]1(C)C[C@@H](OC(=O)CSCCN(CC)CC)[C@]2(C)[C@H](C)CC[C@]3(CCC(=O)[C@H]32)[C@@H](C)[C@@H]1O` [TIAMULIN], the MIC is 2 µg/mL (≈ 4.05 µM) in data set [1], above 32 µg/mL in [2], above 32 µg/mL in data set [3] and above 32 µg/mL in [4].

Take `C=C[C@]1(C)C[C@@H](OC(=O)CSc2cccc(NC(=O)c3ccc(B(O)O)cc3)c2)[C@]2(C)[C@H](C)CC[C@]3(CCC(=O)[C@H]32)[C@@H](C)[C@@H]1O`: the MIC in [5] is at most 0.016 µg/mL; in [6], 0.016 µg/mL (≈ 0.0253 µM); in data set [7], at most 0.03 µg/mL; in data set [8], at most 0.03 µg/mL; in data set [9], at most 0.03 µg/mL; in data set [10], at most 0.03 µg/mL. The minimum inhibitory concentration (MIC) in data set [11] is at most 0.03 µg/mL; in data set [12] it was at most 0.03 µg/mL; in data set [13], at most 0.03 µg/mL; in data set [14], 0.06 µg/mL (≈ 0.0947 µM); in [15] it was at most 0.03 µg/mL; in data set [16], at most 0.03 µg/mL. Also, the MIC is 0.25 µg/mL (≈ 0.395 µM) in [17]; 0.25 µg/mL (≈ 0.395 µM) in data set [18]; 64 µg/mL (≈ 101 µM) in [19]; above 64 µg/mL in [20]; at most 0.03 µg/mL in data set [1]; 0.5 µg/mL (≈ 0.789 µM) in data set [2]. In addition, the MIC was determined as 2 µg/mL (≈ 3.16 µM) in data set [3] and 1 µg/mL (≈ 1.58 µM) in data set [4]. Moreover, in data set [21], the result was Active. Also, the values for the Activity entry in [22], in data set [26] and in [27] were “Tde”, <4.7 10^-11No_unit and <4.7 10^-11No_unit, respectively. The metabolised at 1 h, 1 µM in [23] is 87.5%; in [24], 84.6%; in data set [25], 78.8%.

Source of the values: ChEMBL document CHEMBL5614394, “Novel pleuromutilin derivatives conjugated with phenyl-sulfide and boron-containing moieties as potent antibacterial agents against antibiotic-resistant bacteria” (Eur J Med Chem, 2024).
